Results published in article PMC4967823, “A single amino acid substitution in a chitinase of the legume Medicago truncatula is sufficient to gain Nod-factor hydrolase activity” (Open Biology, 2016).

Target: T1, MtCHIT5b (Medicago truncatula, UniProt A0A072UR65)
T1 construct: gene CHIT5B; without predicted signal peptide, N-terminal 6xHis tag (pET28b or pET32a for variants), E. coli BL21(DE3), Ni-NTA
Assay: reverse-phase HPLC (C18) hydrolysis assay
Assay type: biochemical
Settings: 25 mM sodium acetate pH 5.0, 37 C
Text: reverse-phase HPLC (C18) hydrolysis assay on MtCHIT5b

T1 sequence (A0A072UR65 27-379): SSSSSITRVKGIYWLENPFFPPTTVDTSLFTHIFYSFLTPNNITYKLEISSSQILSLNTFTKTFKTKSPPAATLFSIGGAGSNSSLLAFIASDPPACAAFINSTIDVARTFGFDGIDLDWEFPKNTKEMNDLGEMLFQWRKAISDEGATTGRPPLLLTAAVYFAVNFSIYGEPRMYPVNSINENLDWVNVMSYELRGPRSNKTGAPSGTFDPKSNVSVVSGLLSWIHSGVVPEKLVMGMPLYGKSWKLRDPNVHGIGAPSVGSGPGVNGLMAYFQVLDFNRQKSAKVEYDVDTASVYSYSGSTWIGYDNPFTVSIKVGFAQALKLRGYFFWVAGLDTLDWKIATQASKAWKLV

Row | Km | Structure (SMILES)
1 | 96.9 ± 18.8 µM | CCCCCC/C=C\CCCCC/C=C/C(=O)N[C@H]1[C@H](O[C@H]2[C@H](O)[C@@H](NC(C)=O)[C@H](O[C@H]3[C@H](O)[C@@H](NC(C)=O)[C@H](O[C@H]4[C@H](O)[C@@H](NC(C)=O)C(O)O[C@@H]4COS(=O)(=O)O)O[C@@H]3CO)O[C@@H]2CO)O[C@H](COC(C)=O)[C@@H](O)[C@@H]1O (some centres unmarked) [NodSm-IV(C16 : 2, Ac, S)]
2 | 58.6 ± 11.4 µM | CCCCCC/C=C\CCCCC/C=C/C(=O)N[C@H]1[C@H](O[C@H]2[C@H](O)[C@@H](NC(C)=O)[C@H](O[C@H]3[C@H](O)[C@@H](NC(C)=O)[C@H](O[C@H]4[C@H](O)[C@@H](NC(C)=O)C(O)O[C@@H]4COS(=O)(=O)O)O[C@@H]3CO)O[C@@H]2CO)O[C@H](CO)[C@@H](O)[C@@H]1O (some centres unmarked) [NodSm-IV(C16 : 2, S)]
